Laboratory results reported in ChEMBL document CHEMBL1156689, “Comparison of the cytotoxic activities of naturally occurring hydroxyanthraquinones and hydroxynaphthoquinones” (Eur J Med Chem, 2008).

Experiments:
HepG2 = experiment: Cytotoxicity against MDR1 Pgp overexpressing human HepG2 cells after 24 hrs by MTT assay; format: functional, cell-based; conditions: HepG2, 24 h
HCT-116 = experiment: Cytotoxicity against MDR1 Pgp under-expressing human HCT116 cells after 24 hrs by MTT assay; format: functional, cell-based; conditions: HCT-116, 24 h

Compound	IC50 (HepG2) [µM]	IC50 (HCT-116) [µM]
CC(C)=CC[C@H](OC(=O)C(C)C)C1=CC(=O)c2c(O)ccc(O)c2C1=O [ISOBUTYLALKANNIN]	0.42	0.3
O=C1c2cccc(O)c2C(=O)c2c(O)cc(CO)cc21 [ALOE-EMODIN]	10	8.7
CC(C)=CC[C@H](OC(=O)C1OC1C)C1=CC(=O)c2c(O)ccc(O)c2C1=O (some centres undefined)	0.34	0.39
CC(C)=CC[C@@H](OC(=O)C(C)C)C1=CC(=O)c2c(O)ccc(O)c2C1=O [ISOBUTYLSHIKONIN]	0.22	0.34
O=C1c2cc(CO)cc(O)c2C(=O)c2c(O[C@@H]3O[C@H](CO)[C@@H](O)[C@H](O)[C@H]3O)cccc21	> 100	75
CC(C)=CC[C@@H](O)C1=CC(=O)c2c(O)ccc(O)c2C1=O [SHIKONIN]	0.24	0.23
CCO[C@H](CC=C(C)C)C1=CC(=O)c2c(O)ccc(O)c2C1=O [ETHYLSHIKONIN]	0.42	0.45
Cc1cc(O)c2c(c1)C(=O)c1cc(O)cc(O)c1C2=O [EMODIN]	5.2	5.7
CCC(=O)Oc1cc(C)cc2c1C(=O)c1c(OC(=O)CC)cc(OC)cc1C2=O	> 100	9.2
CC(=O)O[C@@H](CC=C(C)C)C1=CC(=O)c2c(O)ccc(O)c2C1=O [ACETYLALKANNIN]	0.39	0.34
CC(=O)O[C@H](CC=C(C)C)C1=CC(=O)c2c(O)ccc(O)c2C1=O [ACETYLSHIKONIN]	0.38	0.45
Cc1cc(O)c2c(c1)C(=O)c1cccc(O)c1C2=O [CHRYSOPHANOL]	64.4	47.4
O=C(O)c1cc(O)c2c(c1)[C@H]([C@H]1c3cc(C(=O)O)cc(O)c3C(=O)c3c(O[C@@H]4O[C@H](CO)[C@@H](O)[C@H](O)[C@H]4O)cccc31)c1cccc(O[C@@H]3O[C@H](CO)[C@@H](O)[C@H](O)[C@H]3O)c1C2=O [Sennoside A]	51.6	68.2
CCC(=O)Oc1cccc2c1C(=O)c1c(OC(=O)CC)cc(C)cc1C2=O	> 100	14.8
O=C(O)c1cc(O)c2c(c1)C(=O)c1cccc(O)c1C2=O [RHEIN]	12.3	13
COc1cc(O)c2c(c1)C(=O)c1cc(C)cc(O)c1C2=O [PHYSCION]	77.3	19
CC(C)=CC[C@@H](OC(=O)CC(C)(C)O)C1=CC(=O)c2c(O)ccc(O)c2C1=O [BETA-HYDROXYISOVALERYLSHIKONIN]	0.59	0.37
